Measured values published in article PMC9934367, “Functional impact of subunit composition and compensation on Drosophila melanogaster nicotinic receptors–targets of neonicotinoids” (PLOS Genetics, 2023).

Columns and labels:
Dα2/chicken β2 nAChR = details: cited from earlier work
Dα3/Dβ1 nAChR = target: T1, Dα3/Dβ1 nAChR (Drosophila melanogaster, UniProt P04755+Q9W3G6); test: cell-based; format: cell-based, D. melanogaster
T1 construct: Dβ1 (NP_523927); expressed in transfected cells; host or cells: Xenopus laevis oocytes (cRNA injection)
Description: (§1) cDNAs of the nAChR subunits and co-factors were cloned into pcDNA3.1 (+) vector (Thermo Fisher Scientific). The accession numbers of the nAChR subunits and cofactors are as follows: Dα1 (NP_524481), Dα2 (NP_524482), Dα3 (NP_525079), Dα4 (CAB77445), Dβ1 (NP_523927), Dβ2 (NP_524483), Dβ3 (NP_525098), DmRIC-3 (CAP16647), DmUNC-50 (NP_649813), and DmTMX3 (NP_648847). cRNAs were prepared using the mMESSAGE mMACHINE T7 ULTRA Transcription Kit (Thermo Fisher Scientific, #AM1345) according to the manual with the cDNA template which was cut with appropriate restriction enzymes at the 3’ end of the cDNA.
(§2) We minimised the use of X. laevis according to the UK Animals (Scientific Procedures) Act, 1986. […] Oocytes were defolliculated after collagenase treatment in Ca^2+-free standard oocyte saline (Ca^2+-free SOS). cRNAs of the nAChR subunits and co-factors mixed at a concentration of 0.1 mg/mL was injected into oocytes at a volume of 50 nL. Then the oocytes were incubated in the incubation medium (SOS supplemented with sodium pyruvate (Nacalai Tesque, #13058–12), penicillin-streptomycin (MilliporeSigma, #P4333), gentamycin (Nacalai Tesque, #16672–04), and 4% horse serum (Thermo Fisher Scientific, #26050–070) for 3−4 days prior to electrophysiology.
(§3) Each defolliculated X. laevis oocyte was secured in a Perspex recording chamber and perfused with the standard oocyte saline (SOS) containing 0.5 μM atropine (SOSA) at a flow rate of 7−10 mL/min [48]. Two glass electrodes filled with 2 M KCl were impaled into each oocyte and the membrane potential was clamped at -100 mV. […] The peak amplitude of the response was measured and analysed by pCLAMP (Molecular Devices, USA).
(§4) Y=Imax/1+10^(logEC50‐X)nH
(§5) Where Y is the normalised response, X is log[ligand (M)], EC50 is the half maximal concentration (M), Imax is the maximum normalised response and nH is the Hill coefficient.

Dα3/Dβ1/Dβ2 nAChR = target: T2, Dα3/Dβ1/Dβ2 nAChR (Drosophila melanogaster, UniProt P04755+P25162+Q9W3G6); test: Voltage-clamp electrophysiology, nAChR expressed in X. laevis oocytes; format: cell-based, D. melanogaster
T2 construct: Dβ1 (NP_523927); Dβ2 (NP_524483); expressed in transfected cells; host or cells: Xenopus laevis oocytes (cRNA injection)
Description: as §1, §2, §3, §4, §5

Dα2/Dα3/Dβ1 nAChR = target: T3, Dα2/Dα3/Dβ1 nAChR (Drosophila melanogaster, UniProt P04755+P17644+Q9W3G6); test: as above; format: cell-based, D. melanogaster
T3 construct: Dα2 (NP_524482); Dβ1 (NP_523927); expressed in transfected cells; host or cells: Xenopus laevis oocytes (cRNA injection)
Description: as §1, §2, §3, §4, §5

Dα1/chicken β2 nAChR = details: cited from earlier work
D. melanogaster nAChRs = test: Comparison of agonist activity between nAChRs expressed in X. laevis oocytes (one-way ANOVA, Kruskal-Wallis); format: cell-based
Description: as §2, §3, §4, §5
Prism software was employed for the statistical analyses. […] One-way ANOVA was used to analyse the differences of the ligand agonist activity in terms of pEC50 on the various nAChRs expressed in X. laevis as well as data obtained with D. melanogaster larvae and adults.

D. melanogaster = details: Dα2 knockout; cited from earlier work

**Q.** For α-Bungarotoxin [α-BTX], which “sensitivity to α-BTX” value (Dα2/chicken β2 nAChR) is on record?
**A.** resistant

**Q.** And the “blocking effect on ACh-induced response” value (Dα3/Dβ1 nAChR)?
**A.** minimal blocking effect

**Q.** And the “blocking effect on ACh-induced response” value (Dα3/Dβ1/Dβ2 nAChR)?
**A.** minimal blocking effect

**Q.** What about the “blocking effect on ACh-induced response” value (Dα2/Dα3/Dβ1 nAChR) of the same molecule?
**A.** minimal blocking effect

**Q.** What about the “sensitivity to α-BTX” value (Dα1/chicken β2 nAChR) of the same molecule?
**A.** sensitive

**Q.** Which results are given for `N#C/N=C1\SCCN1Cc1ccc(Cl)nc1` [Thiacloprd]?
**A.** Difference of Imax values, nAChRs compared (D. melanogaster nAChRs; Dα1/Dα2/Dα3/Dβ1/Dβ2 vs. Dα1/Dα2/Dα4/Dβ1/Dβ2): -0.007; Difference of Imax values, nAChRs compared (D. melanogaster nAChRs; Dα1/Dα2/Dα3/Dβ1/Dβ2 vs. Dα1/Dα2/Dβ1/Dβ2/Dβ3): 0.036; Difference of Imax values, nAChRs compared (D. melanogaster nAChRs; Dα1/Dα2/Dα3/Dβ1/Dβ2 vs. Dα1/Dα3/Dα4/Dβ1/Dβ2): 0.033; Difference of Imax values, nAChRs compared (D. melanogaster nAChRs; Dα1/Dα2/Dα3/Dβ1/Dβ2 vs. Dα1/Dα3/Dβ1/Dβ2/Dβ3): -0.030; Difference of Imax values, nAChRs compared (D. melanogaster nAChRs; Dα1/Dα2/Dα3/Dβ1/Dβ2 vs. Dα2/Dα3/Dα4/Dβ1/Dβ2): 0.041; Difference of Imax values, nAChRs compared (D. melanogaster nAChRs; Dα1/Dα2/Dα3/Dβ1/Dβ2 vs. Dα2/Dα3/Dβ1/Dβ2/Dβ3): 0.049

**Q.** Which “sensitivity in larvae, effect of knockout” value (D. melanogaster) does the source give for `CCN(Cc1ccc(Cl)nc1)/C(=C/[N+](=O)[O-])NC` [nitenpyram] here?
**A.** enhanced
